Experimental data taken from PMC9616048, “Thermal proteome profiling reveals Haemonchus orphan protein HCO_011565 as a target of the nematocidal small molecule UMW-868” (Frontiers in Pharmacology, 2022).
Where two headings read alike, the source gives them in different places.

Assays:
[1] = system: H. contortus fourth-stage larvae (L4s) development; assay: Dose-response evaluation, L4 development; assay type: cell-based, Haemonchus contortus; settings: for IC50: Haemonchus contortus, 168 h
Protocol: (§1) These evaluations were carried out to estimate the half-maximal inhibitory concentrations (IC50 values) for hit compounds against H. contortus xL3s. With reference to the two positive-control compounds (monepantel and moxidectin), IC50 values for compounds were estimated ([Preston et al., 2015]; [Taki et al., 2021a]) using two-fold serial dilution (in LB*; 9 points from 50 μM to 0.2 µM) in 96-well plates (cat. no. 3596; Corning) with larvae at a density of 300 H. contortus xL3s in 100 µl per well. Plates containing H. contortus xL3s were incubated at 38°C, 10% (v/v) CO2 and >90% relative humidity.
(§2) The motility of H. contortus xL3s and L4 development were measured following 168 h of incubation with compound ([Taki et al., 2021a]). Compound concentrations were log10-transformed and fitted using a variable slope four-parameter equation, constraining the highest value to 100% employing a least squares (ordinary) fit model using GraphPad Prism software (v.9.1.2). Compounds were tested by three independent experiments in triplicate. A one-way analysis of variance (ANOVA) with a Tukey’s multiple comparison test or an unpaired t-test was used to establish statistically significant differences in larval motility or development.

[2] = system: mitochondria of HepG2 human hepatoma cells; assay: Mitochondrial toxicity in HepG2 cells (galactose medium); assay type: cell-based; settings: HepG2 mitochondria, concentrations of up to 100 µM
Protocol: The toxicities of compounds on cell and mitochondria were assessed to estimate their half-maximal cytotoxic concentrations (CC50) and half-maximal mitotoxic concentrations (MC50), respectively. HepG2 human hepatoma cells were seeded into wells of a 96-well plate at a density of 5.5 × 10^4 cells per well in 80 µl of Dulbecco’s modified eagle medium (DMEM; with GlutaMax™ cat. no. 10566016 or 4 mM L-glutamine cat. no. 11966025; Thermo Fisher Scientific), supplemented with 25 mM D-glucose (cytotoxicity) or D-galactose (mitotoxicity), 10% (v/v) inactivated foetal bovine serum (iFBS), 100 IU/ml of penicillin, 100 μg/ml of streptomycin and 0.25 μg/ml of amphotericin B (designated DMEM*). Cells were allowed to adhere for 16 h at 37°C and 5% (v/v) CO2 at > 90% relative humidity, then, incubated for 48 h with individual, serially-diluted compounds (two-fold serial dilution in DMEM*; […]) in a final volume of 100 µl. For the assessment of toxicity on mitochondria, cells were starved of serum (DMEM* without iFBS) for 4 h prior to the 48 h-incubation with compounds ([Swiss and Will, 2011]; [Kamalian et al., 2015]). Two positive control compounds, doxorubicin (cytotoxic control) and M-666 (mitotoxic control) were each added to three individual wells in each 96-well plate at a single concentration of 10 µM. DMEM* + 0.25% (v/v) DMSO was added to 12 wells in each plate as negative controls. Monepantel and moxidectin were also serially diluted — prepared in the same manner as test compounds — and used as (“non-toxic”) reference compounds. After 48 h of incubation, cell viability was determined by the crystal violet staining method ([Śliwka et al., 2016]). The absorbance (595 nm) of treated cells was normalised with reference to the negative control (100% viability). To determine the CC50 and MC50 values, compound concentrations were log10-transformed, baseline-corrected using a respective positive control (doxorubicin or M-666) and fitted using a variable slope four-parameter equation with a least squares (ordinary) fit model using GraphPad Prism software (v.9.1.2). Compounds and controls were tested in triplicate.

[3] = system: He. polygyrus in mice; assay: In vivo activity against He. polygyrus in mice
Protocol: Candidate compound(s) were tested for their effect on other nematode species (He. polygyrus and A. ceylanicum) in infected rodents.
For He. polygyrus, four NMRI mice (3 weeks old; female) were infected orally with 88 He. polygyrus L3s, and immunosuppressed with 0.25 mg/ml dexamethasone (Sigma-Aldrich), in the drinking water, until 2 days prior to treatment ([Mes et al., 2007]). For A. ceylanicum, four Syrian golden hamsters (3 weeks old; male) were infected orally with 300 L3s without immunosuppression ([Tritten et al., 2012]). […] Four each of untreated mice and hamsters served as placebo controls. Six to 7 days post-treatment with the compound, all animals were euthanised by CO2 (hamsters being initially narcotised using isoflurane), and the intestine was dissected. The live adult worms were collected and counted to calculate the worm burden reductions and worm expulsion rates. The worm burden reduction was calculated using the mean number of live worms for the treated group and establishing the differences, in a percentage, with reference to the untreated control group.

[4] = system: H. contortus xL3s; assay: Dose-response evaluation, xL3 motility; assay type: cell-based; settings: Haemonchus contortus
Protocol: as §1
as §2, with “Compound” for “The motility of H. contortus xL3s and L4 development were measured following 168 h of incubation with compound ([Taki et al., 2021a]). Compound”

[5] = mouse, He. polygyrus, 200 mg/kg single oral dose

CCCc1ccc(-c2nc(-c3cccs3)no2)cc1 [UMW-868, 5-(4-propylphenyl)-3-(2-thienyl)-1,2,4-oxadiazole]
IC50 ([1]; analog series, read-out: L4 development inhibition (IC50 in µM)): 50 µM
IC50 ([1]; larval development inhibition, hit evaluation, read-out: IC50 (development)): 5.8 µM
abnormal phenotypes in affected xL3s ([1]; dose-response evaluation): curved or evisceration
mitotoxicity (in words) [2]: did not display any appreciable cytotoxicity or mitotoxicity
acute toxicity and pathological changes in treated animals ([3]; mice, single oral dose, post-mortem examination): neither evidence of acute toxicity
Mean no. of worms (SD) [3, 5]: 12.0 (3.5)
Reduction in infection intensity (%) [3, 5]: 47%
IC50 ([4]; 90 h, xL3s, 90 h, read-out: IC50 (motility)): 5.6 µM
IC50 ([4]; 168 h, analog series, read-out: xL3 motility reduction (IC50 in µM)): 13.8 µM
